System: B16-F10 syngeneic mouse melanoma-derived subcutaneous tumor
Test: B16-F10 Study 7: mouse B16-F10 syngeneic tumor model, individual tumor volume
Format: in vivo
Conditions: delay from day 7 to day 10-12; of the 8 implanted tumors; Compound I-263a 7.5 mg/kg IV BIWx3 till Day 17
Method: B16-F10 Study 7: B16-F10 is a mouse melanoma cell line. B16-F10 mouse syngeneic tumor model was generated by subcutaneous inoculation with 0.08×10^6 B16-F10 cells (cell suspension) in 11 weeks old female C57BL/6 mice (Taconic Biosciences, Rensselaer, NY) in the flank. When the mean tumor volume reached approximately 50 mm^3, the animals were randomized into one vehicle control and five treatment groups (n=8/group). Mice were then dosed with 20% HPbCD or Compound I-263a or anti-mouse PD-1 antibody over a 17-day period. Tumor growth and body weight were measured twice per week during the treatment and post-treatment periods, and mice were humanely euthanized once they had reached their humane endpoint.
Study 7: A 0.75 mg/mL stock solution of Compound I-263a was formulated weekly in 20% HPβCD and administered intravenously (IV) based on exact animal body weight on each day of treatment, using a dosing volume of 10 mL/kg body weight. Final doses received were 7.5 mg/kg. Dosing volume for Compound I-263a was 0.2 mL. […]
Tumors were measured twice weekly using vernier calipers. Tumor volumes were calculated using standard equation: V=W^2×L/2, where V=volume, W=width, and L=length for the tumor. […] Tumor size and body weight were measured twice a week for the duration of the study. […]

Cc1sc(C(=O)c2cncnc2N[C@@H]2C[C@H](COS(N)(=O)=O)[C@@H](O)C2)cc1[C@@H]1NCCc2ccc(Cl)cc21 [Compound I-263a, [(1R,2S,4R)-4-{[5-({4-[(1R)-7-chloro-1,2,3,4-tetrahydroisoquinolin-1-yl]-5-methyl-2-thienyl}carbonyl)pyrimidin-4-yl]amino}-2-hydroxycyclopentyl]methyl sulfamate] was tested, and the “tumors with tumor growth delay” value was 2.
